Here are results for 28 molecules from patent US7368578B2, “Five-membered heterocyclic compounds” (Takeda Pharmaceutical Company Limited, priority 2002, dated 2008).

As a reminder, the melting point is the temperature of the solid-liquid transition.

As for `COc1cc(COc2cc(/C=C/c3ccccn3)n(-c3ccccc3)n2)ccc1OCc1nc(-c2ccco2)oc1C` [Example 140, 2-((E)-2-{3-[(4-{[2-(2-furyl)-5-methyl-1,3-oxazol-4-yl]methoxy}-3-methoxybenzyl)oxy]-1-phenyl-1H-pyrazol-5-yl}ethenyl)pyridine], the melting point was 122 to 123 °C.
As for `COc1cc(COc2cc(CCc3ccccn3)n(-c3ccccc3)n2)ccc1OCc1nc(-c2ccco2)oc1C` [Example 141, 2-(2-{3-[(4-{[2-(2-furyl)-5-methyl-1,3-oxazol-4-yl]methoxy}-3-methoxybenzyl)oxy]-1-phenyl-1H-pyrazol-5-yl}ethyl)pyridine], the figure is 104 to 105 °C; as for `COc1cc(COc2cc(Cn3cncn3)n(-c3ccccc3)n2)ccc1OCc1nc(-c2ccco2)oc1C` [Example 143, 1-({3-[(4-{[2-(2-furyl)-5-methyl-1,3-oxazol-4-yl]methoxy}-3-methoxybenzyl)oxy]-1-phenyl-1H-pyrazol-5-yl}methyl)-1H-1,2,4-triazole], 95 to 96 °C; as for `COc1cc(COc2nn(-c3ccccc3)cc2/C=C\c2csc(C)n2)ccc1OCc1nc(-c2ccco2)oc1C` [Example 150 (Z form), 2-(2-furyl)-4-({2-methoxy-4-[({4-[(Z)-2-(2-methyl-1,3-thiazol-4-yl)ethenyl]-1-phenyl-1H-pyrazol-3-yl}oxy)methyl]phenoxy}methyl)-5-methyl-1,3-oxazole], 164 to 165 °C.
`CCc1nc(/C=C/c2cn(-c3ccccc3)nc2OCc2ccc(OCc3nc(-c4ccco4)oc3C)c(OC)c2)cs1` [Example 152 (E form), 4-({4-[({4-[(E)-2-(2-ethyl-1,3-thiazol-4-yl)ethenyl]-1-phenyl-1H-pyrazol-3-yl}oxy)methyl]-2-methoxyphenoxy}methyl)-2-(2-furyl)-5-methyl-1,3-oxazole]: the melting point was 108 to 109 °C.
As for `CCc1nc(/C=C\c2cn(-c3ccccc3)nc2OCc2ccc(OCc3nc(-c4ccco4)oc3C)c(OC)c2)cs1` [Example 152 (Z form), 4-({4-[({4-[(Z)-2-(2-ethyl-1,3-thiazol-4-yl)ethenyl]-1-phenyl-1H-pyrazol-3-yl}oxy)methyl]-2-methoxyphenoxy}methyl)-2-(2-furyl)-5-methyl-1,3-oxazole], the figure is 132 to 133 °C; as for `CCOc1cc(COc2nn(-c3ccccc3)cc2C=O)ccc1OCc1nc(-c2ccco2)oc1C` [Example 154, 3-[(3-ethoxy-4-{[2-(2-furyl)-5-methyl-1,3-oxazol-4-yl]methoxy}benzyl)oxy]-1-phenyl-1H-pyrazole-4-carbaldehyde], 149 to 150 °C; as for `COc1cc(COc2nn(-c3ccccc3)cc2/C=C/C(C)=O)ccc1OCc1nc(-c2ccco2)oc1C` [Example 155, (3E)-4-{3-[(4-{[2-(2-furyl)-5-methyl-1,3-oxazol-4-yl]methoxy}-3-methoxybenzyl)oxy]-1-phenyl-1H-pyrazol-4-yl}-3-buten-2-one], 177 to 178 °C.
Regarding `CCCC(=O)/C=C/c1cn(-c2ccccc2)nc1OCc1ccc(OCc2nc(-c3ccco3)oc2C)c(OC)c1` [Example 157, (1E)-1-{3-[(4-{[2-(2-furyl)-5-methyl-1,3-oxazol-4-yl]methoxy}-3-methoxybenzyl)oxy]-1-phenyl-1H-pyrazol-4-yl}-1-hexen-3-one], the melting point fell in the range of 167 to 168 °C.
`COc1cc(COc2nn(-c3ccccc3)cc2/C=C/P(=O)(O)O)ccc1OCc1nc(-c2ccco2)oc1C` [Example 158, (E)-2-{3-[(4-{[2-(2-furyl)-5-methyl-1,3-oxazol-4-yl]methoxy}-3-methoxybenzyl)oxy]-1-phenyl-1H-pyrazol-4-yl}ethenylphosphonic acid] gave a melting point of 138 to 140 °C.
For the molecule `COc1cc(COc2nn(-c3ccccc3)cc2/C=C/C(=O)N(C)OC)ccc1OCc1nc(-c2ccco2)oc1C` [Example 162, (2E)-3-{3-[(4-{[2-(2-furyl)-5-methyl-1,3-oxazol-4-yl]methoxy}-3-methoxybenzyl)oxy]-1-phenyl-1H-pyrazol-4-yl}-N-methoxy-N-methyl-2-propenamide], the melting point lay in the range of 173 to 174 °C.
In turn, `COC(=O)c1cc(COc2nn(-c3ccccc3)cc2C=O)ccc1OCc1nc(-c2ccco2)oc1C` [Example 163, methyl 5-{[(4-formyl-1-phenyl-1H-pyrazol-3-yl)oxy]methyl}-2-{[2-(2-furyl)-5-methyl-1,3-oxazol-4-yl]methoxy}benzoate] had a melting point of 173 to 174 °C.
In turn, `Cc1oc(-c2ccco2)nc1COc1ccc(COc2nn(-c3ccccc3)cc2C=O)cn1` [Example 164, 3-[(6-{[2-(2-furyl)-5-methyl-1,3-oxazol-4-yl]methoxy}pyridin-3-yl)methoxy]-1-phenyl-1H-pyrazole-4-carbaldehyde] registered a melting point of 122 to 123 °C.
As for `CCOC(=O)/C=C/c1cn(C)nc1OCc1ccc(OCc2nc(-c3ccco3)oc2C)c(OC)c1` [Example 165, ethyl (2E)-3-{3-[(4-([2-(2-furyl)-5-methyl-1,3-oxazol-4-yl]methoxy}-3-methoxybenzyl)oxy]-1-methyl-1H-pyrazol-4-yl)-2-propenoate], the figure is 135 to 136 °C.
With `COc1cc(COc2nn(C)cc2/C=C/c2cscn2)ccc1OCc1nc(-c2ccco2)oc1C` [Example 167 (E form), 2-(2-furyl)-4-({2-methoxy-4-[({1-methyl-4-[(E)-2-(1,3-thiazol-4-yl)ethenyl]-1H-pyrazol-3-yl}oxy)methyl]phenoxy}methyl)-5-methyl-1,3-oxazole] the figure was 134 to 135 °C.
With `COc1cc(COc2nn(C)cc2/C=C\c2cscn2)ccc1OCc1nc(-c2ccco2)oc1C` [Example 167 (Z form), 2-(2-furyl)-4-({2-methoxy-4-[({1-methyl-4-[(Z)-2-(1,3-thiazol-4-yl)ethenyl]-1H-pyrazol-3-yl}oxy)methyl]phenoxy}methyl)-5-methyl-1,3-oxazole] the figure was 97 to 98 °C.
The molecule `CCOC(=O)/C=C/c1cn(CC)nc1OCc1ccc(OCc2nc(-c3ccco3)oc2C)c(OC)c1` [Example 168, ethyl (2E)-3-{1-ethyl-3-[(4-{[2-(2-furyl)-5-methyl-1,3-oxazol-4-yl]methoxy}-3-methoxybenzyl)oxy]-1H-pyrazol-4-yl}-2-propenoate] returned a melting point of 149 to 150 °C.
As for `CCOC(=O)c1cn(C)nc1OCc1ccc(OCc2nc(-c3ccco3)oc2C)c(OC)c1` [Example 171, ethyl 3-[(4-{[2-(2-furyl)-5-methyl-1,3-oxazol-4-yl]methoxy}-3-methoxybenzyl)oxy]-1-methyl-1H-pyrazole-4-carboxylate], the figure is 117 to 118 °C; as for `CCOC(=O)c1cn(CC)nc1OCc1ccc(OCc2nc(-c3ccco3)oc2C)c(OC)c1` [Example 172, ethyl 1-ethyl-3-[(4-{[2-(2-furyl)-5-methyl-1,3-oxazol-4-yl]methoxy}-3-methoxybenzyl)oxy]-1H-pyrazole-4-carboxylate], 114 to 115 °C.
As for `COc1cc(COc2nn(CCO)cc2CO)ccc1OCc1nc(-c2ccco2)oc1C` [Example 176, 2-[3-[(4-{[2-(2-furyl)-5-methyl-1,3-oxazol-4-yl]methoxy}-3-methoxybenzyl)oxy]-4-(hydroxymethyl)-1H-pyrazol-1-yl]ethanol], the figure is 120 to 122 °C; as for `COc1cc(COc2nn(C)cc2C=O)ccc1OCc1nc(-c2ccco2)oc1C` [Example 177, 3-[(4-{[2-(2-furyl)-5-methyl-1,3-oxazol-4-yl]methoxy}-3-methoxybenzyl)oxy]-1-methyl-1H-pyrazole-4-carbaldehyde], 155 to 156 °C; as for `CCn1cc(C=O)c(OCc2ccc(OCc3nc(-c4ccco4)oc3C)c(OC)c2)n1` [Example 178, 1-ethyl-3-[(4-{[2-(2-furyl)-5-methyl-1,3-oxazol-4-yl]methoxy}-3-methoxybenzyl)oxy]-1H-pyrazole-4-carbaldehyde], 103 to 104 °C.
For the molecule `COc1cc(COc2nn(CCO)cc2C=O)ccc1OCc1nc(-c2ccco2)oc1C` [Example 179, 3-[(4-{[2-(2-furyl)-5-methyl-1,3-oxazol-4-yl]methoxy}-3-methoxybenzyl)oxy]-1-(2-hydroxyethyl)-1H-pyrazole-4-carbaldehyde], the melting point lay in the range of 149 to 150 °C.
As for `COc1cc(COc2nn(-c3ccccc3)cc2/C=C/c2cncn2C)ccc1OCc1nc(-c2ccco2)oc1C` [Example 181, 2-(2-furyl)-4-({2-methoxy-4-[({4-[(E)-2-(1-methyl-1H-imidazol-5-yl)ethenyl]-1-phenyl-1H-pyrazol-3-yl}oxy)methyl]phenoxy}methyl)-5-methyl-1,3-oxazole], the figure is 144 to 145 °C; as for `CCn1cncc1/C=C/c1cn(-c2ccccc2)nc1OCc1ccc(OCc2nc(-c3ccco3)oc2C)c(OC)c1` [Example 182, 4-({4-[({4-[(E)-2-(1-ethyl-1H-imidazol-5-yl)ethenyl]-1-phenyl-1H-pyrazol-3-yl}oxy)methyl]-2-methoxyphenoxy}methyl)-2-(2-furyl)-5-methyl-1,3-oxazole], 130 to 132 °C.
In turn, `COc1cc(COc2nn(-c3ccccc3)cc2/C=C/C(N)=S)ccc1OCc1nc(-c2ccco2)oc1C` [Example 184, (2E)-3-{3-[(4-{[2-(2-furyl)-5-methyl-1,3-oxazol-4-yl]methoxy}-3-methoxybenzyl)oxy]-1-phenyl-1H-pyrazol-4-yl}-2-propenethioamide] had a melting point of 129 to 131 °C.
Take `COc1cc(COc2nn(-c3ccccc3)cc2/C=C/c2nc(C)cs2)ccc1OCc1nc(-c2ccco2)oc1C` [Example 185, 2-(2-furyl)-4-({2-methoxy-4-[({4-[(E)-2-(4-methyl-1,3-thiazol-2-yl)ethenyl]-1-phenyl-1H-pyrazol-3-yl}oxy)methyl]phenoxy}methyl)-5-methyl-1,3-oxazole]: the melting point was 130 to 131 °C.
As for `CCOC(=O)c1csc(/C=C/c2cn(-c3ccccc3)nc2OCc2ccc(OCc3nc(-c4ccco4)oc3C)c(OC)c2)n1` [Example 186, ethyl 2-((E)-2-{3-[(4-{[2-(2-furyl)-5-methyl-1,3-oxazol-4-yl]methoxy}-3-methoxybenzyl)oxy]-1-phenyl-1H-pyrazol-4-yl}ethenyl)-1,3-thiazole-4-carboxylate], the figure is 156 to 157 °C.
